Reference: patent US6984754B1, “Aliphatic amino carboxylic and amino phosphonic acids amino nitriles and amino tetrazoles as cellular rescue agents” (University of Saskatchewan Technologies Inc., priority 1998, dated 2006)
Counter-ions that a name gives are not always drawn.

Experiments:
[1] = system: cerebellar granule cells (CGC); assay: Antiapoptotic capacity (rescue) in cerebellar granule cells induced into apoptosis by cytosine arabinoside (CGC assay); assay type: cell-based, Wistar rat; settings: for Rescue by Amino Acids and Esters in the CGC Assay, 10^−6 M / Rescue by Amino Nitriles in the CGC Assay, 10^−6 M / Rescue by Amino Phosphonic Acids in the CGC Assay, 10^−6 M: compound 10^−6 M; for Rescue by Amino Acids and Esters in the CGC Assay, 10^−6 M / Rescue by Amino Acids and Esters in the CGC Assay, 10^−9 M / Rescue by Amino Acids and Esters in the CGC Assay, 10^−12 M / Rescue by Amino Nitriles in the CGC Assay, 10^−6 M / Rescue by Amino Nitriles in the CGC Assay, 10^−9 M / Rescue by Amino Nitriles in the CGC Assay, 10^−12 M / Rescue by Amino Phosphonic Acids in the CGC Assay, 10^−6 M / Rescue by Amino Phosphonic Acids in the CGC Assay, 10^−9 M / Rescue by Amino Phosphonic Acids in the CGC Assay, 10^−12 M: AraC 300 uM-induced apoptosis, 24 hours; for Rescue by Amino Acids and Esters in the CGC Assay, 10^−9 M / Rescue by Amino Nitriles in the CGC Assay, 10^−9 M / Rescue by Amino Phosphonic Acids in the CGC Assay, 10^−9 M: compound 10^−9 M; for Rescue by Amino Acids and Esters in the CGC Assay, 10^−12 M / Rescue by Amino Nitriles in the CGC Assay, 10^−12 M / Rescue by Amino Phosphonic Acids in the CGC Assay, 10^−12 M: compound 10^−12 M
Source text: In Vitro Protocol for Assessing the Antiapoptotic Capacity of Various Compounds in Cerebellar Granule Cells
Cultures of cerebellar granule cells (CGC) can be induced into apoptosis by the addition of a high concentration of cytosine arabinoside (AraC). It has been shown that this is a p53 dependent apoptosis. We have measured the antiapoptotic effect of some amino acids, amino esters, amino phosphonic acids, amino nitriles and amino tetrazoles using this system.
Cultures of CGC were obtained from 6-8 day old Wistar rat pups. Cultures were grown on glass in 35 mm petri dishes for three days and then used for experiments. Aliquots (20 ul) of drug solutions (AraC, anti-apoptotic drugs, drug vehicles) were added to the medium of the culture. 24 Hours later the cultures were fixed with FAM, and stained with bis-benzamide. Normal and apoptotic nuclei were counted to a total of 90-120 cells per culture.

[2] = overall over 10^−6, 10^−9, 10^−12 M

With `CCOC(=O)CNC(C)C` (as salt: hydrochloride) the melting point was 120 to 121 °C.
`CCCCC[C@H](C)NCCC(=O)OC` (stereo in doubt) (as salt: hydrochloride) gave a melting point of 89.5 to 90.5 °C.
With `CCCCCC(C)NCCC(=O)O` (stereo in doubt) (as salt: hydrochloride) [R-2-Heptyl (B-Alanines), (R)-3-(2-Heptylamino)propionic acid hydrochloride] the melting point was 57 to 58 °C.
`CCCCCC(C)NCCC#N` (stereo in doubt) (as salt: hydrochloride) [R-2-Heptyl (Propionitriles), (R)-3-(2-Heptylamino)propionitrile hydrochloride] gave a melting point of 134 to 135 °C.
Work on `CCCCCC(C)N(C)CCC#N` (stereo in doubt) (as salt: hydrochloride) [R-2-Heptyl-N-methyl (Propionitriles), (R)-3-(2-Heptylmethylamino)propionitrile hydrochloride] yielded a melting point of 98 to 98.5 °C.
With `CCCCCC(C)NCC#N` (stereo in doubt) (as salt: hydrochloride) [R-2-heptyl (Acetonitriles), (R)-2-(2-Heptylamino)acetonitrile hydrochloride] the melting point was 152 to 153 °C.
With `CCCCCCNCCC(=O)O` [1-Hexyl (B-Alanines), 3(1-Hexylamino)propionic acid] the “Rescue by Amino Acids and Esters in the CGC Assay, 10^−6 M” value [1] was “R”, the “Rescue by Amino Acids and Esters in the CGC Assay, 10^−9 M” value [1] was “R” and the “Rescue by Amino Acids and Esters in the CGC Assay, 10^−12 M” value [1] was “R”. The “Rescue by Amino Acids and Esters in the CGC Assay, Rescue (overall yes/no)” value [1, 2] was “yes” and the melting point was 95 to 97 °C.
With `CCCCCCNCCC#N.Cl` [1-Hexyl (Propionitriles), 3-(1-Hexylamino)propionitrile hydrochloride] the “Rescue by Amino Nitriles in the CGC Assay, Rescue (overall yes/no)” value (“Rescue by Amino Nitriles … (overall yes/no)” below) [1, 2] was “no” and the melting point was 188 to 189 °C.
For `CC(C)NCC#N.Cl` [2-Propyl (Acetonitriles), 2-(2-Propylamino)acetonitrile hydrochloride], the “Rescue by Amino Nitriles in the CGC Assay, 10^−6 M” value [1] was “R”, the “Rescue by Amino Nitriles in the CGC Assay, 10^−9 M” value (“Rescue by Amino Nitriles … 10^−9 M” for short) [1] was “R” and the “Rescue by Amino Nitriles in the CGC Assay, 10^−12 M” value [1] was “R”. For the same molecule, the “Rescue by Amino Nitriles … (overall yes/no)” value [1, 2] was “yes” and the melting point was 166 to 167 °C.
In the case of `CC(C)NCCP(=O)(O)O.Cl` [2-Propyl (Amino Phosphonic Acids), 2-(2-Propylamino)ethanephosphonic acid hydrochloride], the “Rescue by Amino Phosphonic Acids in the CGC Assay, 10^−6 M” value [1] is reported as “R”, the “Rescue by Amino Phosphonic Acids in the CGC Assay, 10^−9 M” value [1] is reported as “R” and the “Rescue by Amino Phosphonic Acids in the CGC Assay, 10^−12 M” value [1] is reported as “R”. For the same molecule, the “Rescue by Amino Phosphonic Acids in the CGC Assay, Rescue (overall yes/no)” value [1, 2] was “yes” and the melting point was 164 to 166 °C.
In the case of `CC(C)NCCC(=O)O.Cl` [2-Propyl (B-Alanines), 3-(2-Propylamino)propionic acid hydrochloride], the “Rescue by Amino Acids and Esters in the CGC Assay, 10^−9 M” value [1] is reported as “R”, the “Rescue by Amino Acids and Esters in the CGC Assay, 10^−12 M” value [1] is reported as “R” and the “Rescue by Amino Acids and Esters in the CGC Assay, Rescue (overall yes/no)” value [1, 2] is reported as “yes”. For the same molecule, the melting point was 154 to 155 °C.
With `CC(C)N(C)CCC#N.Cl` [2-Propyl-N-methyl (Propionitriles), 3-(2-Propylmethylamino)propionitrile hydrochloride] the “Rescue by Amino Nitriles … (overall yes/no)” value [1, 2] was “no” and the melting point was 121 to 121.5 °C.
For `CCC(CC)NCCC#N.Cl` [3-Pentyl (Propionitriles), 3-(3-Pentylamino)propionitrile hydrochloride], the “Rescue by Amino Nitriles in the CGC Assay, 10^−6 M” value [1] was “R”, the “Rescue by Amino Nitriles … 10^−9 M” value [1] was “R” and the “Rescue by Amino Nitriles … (overall yes/no)” value [1, 2] was “yes”. The melting point was 118.5 to 119.5 °C.
In the case of `CCCCC[C@@H](C)NCCP(=O)(O)O.Cl` [R-2-Heptyl (Amino Phosphonic Acids), (R)-2-(2-Heptylamino)ethanephosphonic acid hydrochloride], the “Rescue by Amino Phosphonic Acids in the CGC Assay, Rescue (overall yes/no)” value [1, 2] is reported as “yes*”.
With `CCCCC[C@@H](C)N(C)CCC(=O)OC.Cl` [R-2-Heptyl-N-methyl (B-Alaninates), (R)-Methyl 3-(2-heptylmethylamino)propionate hydrochloride] the “Rescue by Amino Acids and Esters in the CGC Assay, 10^−6 M” value [1] was “R”, the “Rescue by Amino Acids and Esters in the CGC Assay, 10^−9 M” value [1] was “R” and the “Rescue by Amino Acids and Esters in the CGC Assay, 10^−12 M” value [1] was “R”. For the same molecule, the “Rescue by Amino Acids and Esters in the CGC Assay, Rescue (overall yes/no)” value [1, 2] was “yes”.
In the case of `CCCCC[C@@H](C)N(C)CCC(=O)O.Cl` [R-2-Heptyl-N-methyl (B-Alanines), (R)-3-(2-Heptylmethylamino)propionic acid hydrochloride], the “Rescue by Amino Acids and Esters in the CGC Assay, 10^−6 M” value [1] is reported as “R”, the “Rescue by Amino Acids and Esters in the CGC Assay, 10^−9 M” value [1] is reported as “R” and the “Rescue by Amino Acids and Esters in the CGC Assay, 10^−12 M” value [1] is reported as “R”. For the same molecule, the “Rescue by Amino Acids and Esters in the CGC Assay, Rescue (overall yes/no)” value [1, 2] was “yes”.
In the case of `CCC[C@@H](C)NCC#N` [R-2-Pentyl (Acetonitriles), (R)-2-(2-Pentylamino)acetonitrile], the “Rescue by Amino Nitriles … 10^−9 M” value [1] is reported as “R” and the “Rescue by Amino Nitriles … (overall yes/no)” value [1, 2] is reported as “yes”.
For `CCC[C@@H](C)NCCP(=O)(O)O` [R-2-Pentyl (Amino Phosphonic Acids), (R)-2-(2-Pentylamino)ethanephosphonic acid], the “Rescue by Amino Phosphonic Acids in the CGC Assay, 10^−6 M” value [1] was “R” and the “Rescue by Amino Phosphonic Acids in the CGC Assay, Rescue (overall yes/no)” value [1, 2] was “yes”.
In the case of `CCCCC[C@H](C)NCC#N.Cl` [S-2-Heptyl (Acetonitriles), (S)-2-(2-Heptylamino)acetonitrile hydrochloride], the “Rescue by Amino Nitriles … 10^−9 M” value [1] is reported as “R”, the “Rescue by Amino Nitriles in the CGC Assay, 10^−12 M” value [1] is reported as “R” and the “Rescue by Amino Nitriles … (overall yes/no)” value [1, 2] is reported as “yes”. It also gave a melting point of 140 °C.
With `CCCCC[C@H](C)NCCP(=O)(O)O.Cl` [S-2-Heptyl (Amino Phosphonic Acids), (S)-2-(2-Heptylamino)ethanephosphonic acid hydrochloride] the “Rescue by Amino Phosphonic Acids in the CGC Assay, 10^−9 M” value [1] was “R”, the “Rescue by Amino Phosphonic Acids in the CGC Assay, 10^−12 M” value [1] was “R” and the “Rescue by Amino Phosphonic Acids in the CGC Assay, Rescue (overall yes/no)” value [1, 2] was “yes”.
In the case of `CCCCC[C@H](C)NCCC(=O)O.Cl` [S-2-Heptyl (B-Alanines), (S)-3-(2-Heptylamino)propionic acid hydrochloride], the “Rescue by Amino Acids and Esters in the CGC Assay, Rescue (overall yes/no)” value [1, 2] is reported as “no” and the melting point is reported as 56 to 58 °C.
With `CCCCC[C@H](C)NCC(=O)O.Cl` [S-2-Heptyl (Glycines), (S)-2-(2-Heptylamino)acetic acid hydrochloride] the “Rescue by Amino Acids and Esters in the CGC Assay, 10^−6 M” value [1] was “R”, the “Rescue by Amino Acids and Esters in the CGC Assay, 10^−9 M” value [1] was “R” and the “Rescue by Amino Acids and Esters in the CGC Assay, 10^−12 M” value [1] was “R”. For the same molecule, the “Rescue by Amino Acids and Esters in the CGC Assay, Rescue (overall yes/no)” value [1, 2] was “yes”.
In the case of `CCCCC[C@H](C)NCCC#N.Cl` [S-2-heptyl (Propionitriles), (S)-3-(2-Heptylamino)propionitrile hydrochloride], the “Rescue by Amino Nitriles … (overall yes/no)” value [1, 2] is reported as “no” and the melting point is reported as 133 to 134 °C.
With `CCC(C)(C)NCCC#N.Cl` [tert-Amyl (Propionitriles), 3-(t-Amylamino)propionitrile hydrochloride] the “Rescue by Amino Nitriles … (overall yes/no)” value [1, 2] was “no” and the melting point was 199 to 200 °C.
For “(S)-2-(2-Heptylamino)ethane-5-tetrazole hydrochloride [S-2-Heptyl (Amino Tetrazoles)]”, the “Rescue by Amino Tetrazoles in the CGC Assay, Rescue (overall yes/no)” value [1, 2] was “no”.
